{
  "source": "patent US20050043239A1",
  "about": "“Methods of inhibiting immune responses stimulated by an endogenous factor” (priority 2003, published 2005)",
  "key": {"human neutrophils": {"test_system": "human neutrophils", "assay": "Neutrophil chemotaxis, Transwell assay", "assay_type": "cell-based", "settings": "no inhibitor, read-out: concentration of chemoattractant necessary to support half-maximal migration", "method": "It is known that distinct signal transduction pathways are utilized by host-derived versus bacteria-produced chemoattractants [Heit, J. Cell Biol., 159:91-102 (2002)]. To determine whether specific chemotactic agents preferentially rely on PI3Kδ in order to promote directed cell migration, the effect of inhibiting PI3Kδ on the ability of neutrophils to undergo chemotaxis was examined using a Transwell™ assay system.\nNeutrophil chemotaxis experiments were conducted as described [Roth et al., J. Immunol. Methods, 188:97-116 (1995)]. Briefly, purified human neutrophils were incubated with DMSO (0.3% v/v) or an inhibitor in accordance with the invention reconstituted in DMSO (0.3%) for 20 minutes at room temperature. Cells were added to bare filter inserts (Transwell™ 5 μm pore size; Corning Costar, Cambridge, Mass.), that were placed into wells containing chemoattractants or control medium of a Ultra low 24-well cluster plate, and incubated for 1 hour at 37° C. in a 5% CO2 humidified environment. The number of neutrophils that migrated into the bottom well was determined by FACScan (Becton Dickinson, San Jose, Calif.). Results were expressed as percent neutrophil migration relative to the control (medium without inhibitor).\nDose response curves were generated to determine the concentrations of each chemoattractant, both host and bacterial-derived, necessary to support half-maximal migration. […] Methods, 137:37-46 (1991)]."}, "neutrophils [1]": {"test_system": "neutrophils", "assay": "Superoxide production by activated neutrophils (WST-1)", "assay_type": "cell-based", "settings": "no inhibitor; read-out: agonist concentration representing half-maximal production of superoxide anions"}, "neutrophils [2]": {"test_system": "neutrophils", "assay": "Neutrophil elastase release (exocytosis) assay", "assay_type": "cell-based", "settings": "no inhibitor; read-out: agonist concentration representing half-maximal release of elastase", "protocol": "Microtiter assays for the detection of elastase released from purified neutrophils (1.1×10^5 per well in PBS) were performed in the absence or presence of an inhibitor in accordance with the invention or LY294002 on fibrinogen-coated plates [Mulligan, et al., Proc. Natl. Acad. Sci. U.S.A., 90:11523-11527 (1993)]. […] The samples were centrifuged and 90 μl of the supernatant was transferred to another plate containing 10 μl of methoxysuccinyl-alanylalanylprolylvalyl-p-nitroanilide (10 mM, Sigma). Absorbance at 410 nm was measured at one hour as described above. Results are expressed as the percentage elastase activity relative to the control (medium without inhibitor)."}, "Listeria monocytogenes": {"test_system": "Listeria monocytogenes", "assay": "Clearance of systemic Listeria monocytogenes infection", "assay_type": "in vivo", "settings": "for Log colony count/gm spleen tissue in dexamethasone group (2 mg/kg): 72 hours post-infection, Lewis rats", "method": "Two separate bacterial clearance studies were conducted. […] Colony counts (CFU) per gram of spleen tissues were determined at necropsy, 72 hours post-infection and expressed as the log of the colony count (e.g., 100000 CFU=log 5) per gram of tissue. Colony count measurements provide an indication of the extent of phagocytosis of bacteria by splenic neutrophils and macrophages."}},
  "note": "“Also recorded” adds a separate entry of the source.",
  "data": [
    {"molecule": "CCCCC/C=C\\C[C@@H](O)/C=C/C=C/C=C\\[C@@H](O)CCCC(=O)O", "note": "[LTB4, leukotriene B4]", "values": [
      {"measurement": "EC50", "setting": "human neutrophils", "result": 0.25, "unit": "nM"},
      {"measurement": "EC50", "setting": "neutrophils [1]", "result": 2, "unit": "nM"},
      {"measurement": "EC50", "setting": "neutrophils [2]", "result": 2, "unit": "nM"}
    ]},
    {"molecule": "C[C@@H]1C[C@H]2[C@@H]3CCC4=CC(=O)C=C[C@]4(C)[C@@]3(F)[C@@H](O)C[C@]2(C)[C@@]1(O)C(=O)CO", "note": "[dexamethasone]", "values": [
      {"measurement": "Log colony count/gm spleen tissue in dexamethasone group (2 mg/kg)", "setting": "Listeria monocytogenes; Clearance Experiment 1, 2 mg/kg BID PO", "result": "count, >5 log colony count/gm spleen tis"},
      {"measurement": "Log colony count/gm spleen tissue in dexamethasone group (2 mg/kg)", "setting": "Listeria monocytogenes; Clearance Experiment 2, 2 mg/kg", "result": "hours, >10 log colony count/gm spleen tis"},
      {"measurement": "lethality / condition of animals at 72 hours", "setting": "Listeria monocytogenes; second experiment, dexamethasone 2 mg/kg", "result": "lethality was observed; also recorded: Moribund at 72"}
    ]},
    {"molecule": "interleukin 8 [IL-8]", "values": [
      {"measurement": "EC50", "setting": "human neutrophils", "result": 0.35, "unit": "nM"}
    ]},
    {"molecule": "complement factor C5a (protein, UniProt P01031 678-751, looked up, C5a anaphylatoxin, host-derived chemoattractant) C5a anaphylatoxin: TLQKKIEEIAAKYKHSVVKKCCYDGACVNNDETCEQRAARISLGPRCIKAFTECCVVASQLRANISHKDMQLGR", "values": [
      {"measurement": "EC50", "setting": "human neutrophils", "result": 0.37, "unit": "nM"}
    ]}
  ]
}
